# Results as given in patent US8338490B2, “Composition for repelling and deterring vermin” (Novartis AG, priority 2006, dated 2012).
# Tests used:
# [1] = tested on: Boophilus microplus Biarra (larvae); experiment: Arena test in vitro against Boophilus microplus Biarra (larvae); details: ca. 60 to 100 per well, video evaluation
# Experimental: This method is carried out in titre plates having 6 wells with a cross-section of 5 cm each, using a computer-supported video system. Each well of the titre plate is lined with a circular filter paper or another suitable carrier material. The substance of formula I to be tested is dissolved in methanol, acetonitrile or another suitable solvent, with ultrasound treatment and heating being employed for poorly-soluble substances. In an amount of 1 to 100 μg/cm^2, the dissolved test substance is placed in the centre of the filter paper on a quadrant or circular area of ca. 2.4 cm^2 radius. 4 of the 6 wells are filled with different test substances or with the same test substance in different dilutions (e.g. 1, 3.2, 5, 10 and 20 μg/cm^2). The 5th well is treated with DEET (N,N-diethyl-m-toluamide) as standard substance. The 6th well is filled with the pure solvent and serves as a control. 60 to 100 larvae or 25 to 50 nymphs or 10 to 25 adults of the parasite to be tested, e.g. ticks, are added to each filter paper, and the system is covered with a pane of glass and positioned under a video camera. At intervals of 5 seconds, the video camera takes individual pictures of all 6 wells. For a qualitative evaluation, these images are observed in a time-lapse as a continuous film, optically following the movements of the parasites on the filter paper and comparing them with the movements in the control well no. 6 or with the standard in the 5th well. A qualitative observation is thus made as to whether the test parasites move evenly over the whole surface of the filter paper and ignore the test substance, or whether and over what period they avoid the treated zone, and what influence the dilution of the test substance has on the behaviour of the test parasites. In this way, neutral and deterring substances are determined. At the same time, the duration of activity of the test substance is determined and compared with that of the standard. By plotting all the images for each individual well over one another, different areas of density are obtained. This represents the frequency at which the parasites visit certain places. This frequency is evaluated statistically and thus quantitatively by the Willcoxon method in a comparison with the control and with the standard. […] Arena Test In Vitro Against Boophilus microplus Biarra (larvae) The test is carried out as described above, with ca. 60 to 100 larvae being added per well. 10 mg of dissolved test substance is applied to an area of 2.4 cm^2 radius. […] Particularly marked long-term activity is shown for example by using the compounds Nos. 1.001, 2.001, 3.001, 4.001, 5.001, 5.184, 5.185, and 5.186 even up to a dilution of 10 μg/cm^2.
# [2] = tested on: various parasites, e.g. ticks; experiment: Arena test: general method for testing vermin-deterring substances; details: 1 to 100 μg/cm^2 on filter paper, video evaluation
# Experimental: Arena Test: General Method for Testing Vermin-Deterring Substances
# This method is carried out in titre plates having 6 wells with a cross-section of 5 cm each, using a computer-supported video system. Each well of the titre plate is lined with a circular filter paper or another suitable carrier material. The substance of formula I to be tested is dissolved in methanol, acetonitrile or another suitable solvent, with ultrasound treatment and heating being employed for poorly-soluble substances. In an amount of 1 to 100 μg/cm^2, the dissolved test substance is placed in the centre of the filter paper on a quadrant or circular area of ca. 2.4 cm^2 radius. 4 of the 6 wells are filled with different test substances or with the same test substance in different dilutions (e.g. 1, 3.2, 5, 10 and 20 μg/cm^2). The 5th well is treated with DEET (N,N-diethyl-m-toluamide) as standard substance. The 6th well is filled with the pure solvent and serves as a control. 60 to 100 larvae or 25 to 50 nymphs or 10 to 25 adults of the parasite to be tested, e.g. ticks, are added to each filter paper, and the system is covered with a pane of glass and positioned under a video camera.
# At intervals of 5 seconds, the video camera takes individual pictures of all 6 wells. For a qualitative evaluation, these images are observed in a time-lapse as a continuous film, optically following the movements of the parasites on the filter paper and comparing them with the movements in the control well no. 6 or with the standard in the 5th well. A qualitative observation is thus made as to whether the test parasites move evenly over the whole surface of the filter paper and ignore the test substance, or whether and over what period they avoid the treated zone, and what influence the dilution of the test substance has on the behaviour of the test parasites. In this way, neutral and deterring substances are determined. At the same time, the duration of activity of the test substance is determined and compared with that of the standard. By plotting all the images for each individual well over one another, different areas of density are obtained. This represents the frequency at which the parasites visit certain places. This frequency is evaluated statistically and thus quantitatively by the Willcoxon method in a comparison with the control and with the standard.
# [3] = tested on: Rhipicephalus sanguineus (nymphs); experiment: Arena test in vitro against Rhipicephalus sanguineus (nymphs); details: ca. 40 to 50, video evaluation
# Experimental: This method is carried out in titre plates having 6 wells with a cross-section of 5 cm each, using a computer-supported video system. Each well of the titre plate is lined with a circular filter paper or another suitable carrier material. The substance of formula I to be tested is dissolved in methanol, acetonitrile or another suitable solvent, with ultrasound treatment and heating being employed for poorly-soluble substances. In an amount of 1 to 100 μg/cm^2, the dissolved test substance is placed in the centre of the filter paper on a quadrant or circular area of ca. 2.4 cm^2 radius. 4 of the 6 wells are filled with different test substances or with the same test substance in different dilutions (e.g. 1, 3.2, 5, 10 and 20 μg/cm^2). The 5th well is treated with DEET (N,N-diethyl-m-toluamide) as standard substance. The 6th well is filled with the pure solvent and serves as a control. 60 to 100 larvae or 25 to 50 nymphs or 10 to 25 adults of the parasite to be tested, e.g. ticks, are added to each filter paper, and the system is covered with a pane of glass and positioned under a video camera. At intervals of 5 seconds, the video camera takes individual pictures of all 6 wells. For a qualitative evaluation, these images are observed in a time-lapse as a continuous film, optically following the movements of the parasites on the filter paper and comparing them with the movements in the control well no. 6 or with the standard in the 5th well. A qualitative observation is thus made as to whether the test parasites move evenly over the whole surface of the filter paper and ignore the test substance, or whether and over what period they avoid the treated zone, and what influence the dilution of the test substance has on the behaviour of the test parasites. In this way, neutral and deterring substances are determined. At the same time, the duration of activity of the test substance is determined and compared with that of the standard. By plotting all the images for each individual well over one another, different areas of density are obtained. This represents the frequency at which the parasites visit certain places. This frequency is evaluated statistically and thus quantitatively by the Willcoxon method in a comparison with the control and with the standard. […] Arena Test In Vitro Against Rhipicephalus sanguineus (nymphs) A test is carried out analogously to example B using ca. 40 to 50 nymphs. […] In particular, the compounds are notable for their almost complete deterring action, which lasts considerably longer than that of DEET. Particularly marked long-term activity is shown for example by compounds Nos. 1.001, 2.001, 3.001, 4.001, 5.001, 5.184, 5.185, and 5.186 even up to a dilution of 10 μg/cm^2.
# [4] = tested on: Amblyomma hebraeum or variegatum (nymphs); experiment: Arena test in vitro against Amblyomma hebraeum or variegatum (nymphs); details: ca. 25 to 50 per well, video evaluation
# Experimental: This method is carried out in titre plates having 6 wells with a cross-section of 5 cm each, using a computer-supported video system. Each well of the titre plate is lined with a circular filter paper or another suitable carrier material. The substance of formula I to be tested is dissolved in methanol, acetonitrile or another suitable solvent, with ultrasound treatment and heating being employed for poorly-soluble substances. In an amount of 1 to 100 μg/cm^2, the dissolved test substance is placed in the centre of the filter paper on a quadrant or circular area of ca. 2.4 cm^2 radius. 4 of the 6 wells are filled with different test substances or with the same test substance in different dilutions (e.g. 1, 3.2, 5, 10 and 20 μg/cm^2). The 5th well is treated with DEET (N,N-diethyl-m-toluamide) as standard substance. The 6th well is filled with the pure solvent and serves as a control. 60 to 100 larvae or 25 to 50 nymphs or 10 to 25 adults of the parasite to be tested, e.g. ticks, are added to each filter paper, and the system is covered with a pane of glass and positioned under a video camera. At intervals of 5 seconds, the video camera takes individual pictures of all 6 wells. For a qualitative evaluation, these images are observed in a time-lapse as a continuous film, optically following the movements of the parasites on the filter paper and comparing them with the movements in the control well no. 6 or with the standard in the 5th well. A qualitative observation is thus made as to whether the test parasites move evenly over the whole surface of the filter paper and ignore the test substance, or whether and over what period they avoid the treated zone, and what influence the dilution of the test substance has on the behaviour of the test parasites. In this way, neutral and deterring substances are determined. At the same time, the duration of activity of the test substance is determined and compared with that of the standard. By plotting all the images for each individual well over one another, different areas of density are obtained. This represents the frequency at which the parasites visit certain places. This frequency is evaluated statistically and thus quantitatively by the Willcoxon method in a comparison with the control and with the standard. […] Arena Test In Vitro Against Amblyomma hebraeum or variegatum (nymphs) The test is carried out as described above, with ca. 25 to 50 nymphs being added per well. 10 mg of dissolved test substance is applied to an area of 2.4 cm^2 radius. […] Particularly marked long-term activity is shown for example by using the compounds Nos. 1.001, 2.001, 3.001, 4.001, 5.001, 5.184, 5.185, and 5.186 even up to a dilution of 3.2 μg/cm^2.
Compound,dilution up to which particularly marked long-term activity is shown [1],vermin-deterring activity in the arena test [2],dilution up to which particularly marked long-term activity is shown [3],dilution up to which particularly marked long-term activity is shown [4]
OCC1CCCCN1Cc1ccccc1 (stereo not drawn) [Compound 1.001],10 μg/cm^2,excellent activity,10 μg/cm^2,3.2 μg/cm^2
OCC1CCCN1Cc1ccccc1 (stereo not drawn) [Compound 2.001],10 μg/cm^2,excellent activity,10 μg/cm^2,3.2 μg/cm^2
"OC1CCN(Cc2ccccc2)C1 (stereo not drawn) [Compound 3.001, 1-Benzyl-pyrrolidin-3-ol]",10 μg/cm^2,excellent activity,10 μg/cm^2,3.2 μg/cm^2
OC1CCCN(Cc2ccccc2)C1 (stereo not drawn) [Compound 4.001],10 μg/cm^2,excellent activity,10 μg/cm^2,3.2 μg/cm^2
OCCN(Cc1ccccc1)Cc1ccccc1 [Compound 5.001],10 μg/cm^2,excellent activity,10 μg/cm^2,3.2 μg/cm^2
CC(CO)N(Cc1ccccc1)Cc1ccccc1 (stereo not drawn) [Compound 5.184],10 μg/cm^2,excellent activity,10 μg/cm^2,3.2 μg/cm^2
